The numbers were not newly measured in patent US9445992B2, “Mucosal delivery compositions comprising a peptide complexed with a crown compound and/or a counter ion” (ARISGEN SA, priority 2009, dated 2016), which cites them from elsewhere.

SMILES strings stand for the structures.

The conditions of this data set: in water.

As usually defined, the pKa is the negative logarithm of the acid dissociation constant. Regarding `CCCCCCCCCCCC(=O)OC[C@H](COP(=O)(O)OCC(O)CO)OC(=O)CCCCCCCCCCC` (stereo partly shown) [DLPG, dilauryloylphosphatidylglycerol], the pKa was under 2.
